Broadly, the melting point is the temperature of the solid-liquid transition.

We go through 42 compounds from patent US7767665B2, “1,3-benzothiazinone derivatives and use thereof” (Takeda Pharmaceutical Company Limited, priority 2001, dated 2010).

Structures are written as SMILES.

Compound `CC(C)(C)OC(=O)CCc1cccc(-c2nc(=O)c3ccc(F)cc3s2)n1` [Example 181, tert-Butyl 3-[6-(7-fluoro-4-oxo-4H-1,3-benzothiazin-2-yl)-2-pyridyl]propanoate] yielded a melting point of 158.5 to 159.5 °C.

For the compound `O=C(O)CCc1cccc(-c2nc(=O)c3ccc(F)cc3s2)n1` [Example 182, 3-[6-(7-Fluoro-4-oxo-4H-1,3-benzothiazin-2-yl)-2-pyridyl]propionic acid], the melting point was in the range of 215 to 217 °C.

Compound `CC(C)(C)OC(=O)CCc1ccnc(-c2nc(=O)c3ccc(Cl)cc3s2)c1` [Example 183, tert-Butyl 3-[2-(7-chloro-4-oxo-4H-1,3-benzothiazin-2-yl)-4-pyridyl]propanoate] showed a melting point of 151.8 to 152.1 °C.

Regarding `CC(C)(C)OC(=O)CCc1ccnc(-c2nc(=O)c3ccc(F)cc3s2)c1` [Example 184, tert-Butyl 3-[2-(7-fluoro-4-oxo-4H-1,3-benzothiazin-2-yl)-4-pyridyl]propanoate], the melting point lay in the range of 137.6 to 138.1 °C.

On to `O=C(O)CCc1ccnc(-c2nc(=O)c3ccc(Cl)cc3s2)c1` [Example 185, 3-[2-(7-Chloro-4-oxo-4H-1,3-benzothiazin-2-yl)-4-pyridyl]propionic acid], for which the melting point is 262.9 to 263.5 °C.

Take `O=C(O)CCc1ccnc(-c2nc(=O)c3ccc(F)cc3s2)c1` [Example 186, 3-[2-(7-Fluoro-4-oxo-4H-1,3-benzothiazin-2-yl)-4-pyridyl]propionic acid]: the melting point is 240 °C (dec.).

For `CC(C)(C)OC(=O)CCc1ccnc(-c2nc(=O)c3ccc(Br)cc3s2)c1` [Example 187, tert-Butyl 3-[2-(7-bromo-4-oxo-4H-1,3-benzothiazin-2-yl)-4-pyridyl]propanoate], the melting point lay in the range of 172.9 to 173.7 °C.

The compound `O=C(O)CCc1ccnc(-c2nc(=O)c3ccc(Br)cc3s2)c1` [Example 188, 3-[2-(7-Bromo-4-oxo-4H-1,3-benzothiazin-2-yl)-4-pyridyl]propionic acid] had a melting point of 257.5 to 259.1 °C.

In the case of `Cc1cc(CCC(=O)OC(C)(C)C)nc(-c2nc(=O)c3ccccc3s2)c1` [Example 189, tert-Butyl 3-[4-methyl-6-(4-oxo-4H-1,3-benzothiazin-2-yl)-2-pyridyl]propanoate], the melting point fell in the range of 168.5 to 169.3 °C.

Consider `Cc1cc(CCC(=O)OC(C)(C)C)nc(-c2nc(=O)c3ccc(Cl)cc3s2)c1` [Example 190, tert-Butyl 3-[6-(7-chloro-4-oxo-4H-1,3-benzothiazin-2-yl)-4-methyl-2-pyridyl]propanoate], for which the melting point is 162.3 to 163 °C.

Regarding `Cc1cc(CCC(=O)O)nc(-c2nc(=O)c3ccccc3s2)c1` [Example 191, 3-[4-Methyl-6-(4-oxo-4H-1,3-benzothiazin-2-yl)-2-pyridyl]propionic acid], the melting point lay in the range of 244.6 to 245.5 °C.

`Cc1cc(CCC(=O)O)nc(-c2nc(=O)c3ccc(Cl)cc3s2)c1` [Example 192, 3-[6-(7-Chloro-4-oxo-4H-1,3-benzothiazin-2-yl)-4-methyl-2-pyridyl]propionic acid] came in with a melting point of 232.2 to 233.2 °C.

In turn, `O=c1nc(-c2cccc(-c3cccs3)n2)sc2ccccc12` [Example 193, 2-[6-(2-Thienyl)-2-pyridyl]-4H-1,3-benzothiazin-4-one] had a melting point of 222.2 to 223.4 °C.

As for `O=c1nc(-c2cccc(-c3ccco3)n2)sc2ccccc12` [Example 194, 2-[6-(2-Furyl)-2-pyridyl]-4H-1,3-benzothiazine-4-one], the melting point was 217.9 to 218.4 °C.

Take `O=c1nc(-c2cccc(-c3cnco3)n2)sc2ccccc12` [Example 195]: the melting point is 271.3 to 272.7 °C.

`O=c1nc(-c2cccc(-n3cccn3)n2)sc2ccccc12` [Example 196, 2-[6-(1H-Pyrazol-1-yl)-2-pyridyl]-4H-1,3-benzothiazine-4-one]: the melting point lay in the range of 253 to 254 °C.

Turning to `O=c1nc(-c2cccc(-c3ccccc3)n2)sc2ccccc12` [Example 197, 2-(6-Phenyl-2-pyridyl)-4H-1,3-benzothiazine-4-one], the melting point was in the range of 195.4 to 197 °C.

For the compound `COc1ccc(-c2cccc(-c3nc(=O)c4ccccc4s3)n2)cc1` [Example 198, 2-[6-(4-Methoxyphenyl)-2-pyridyl]-4H-1,3-benzothiazine-4-one], the melting point lay within 200.1 to 201.1 °C.

Consider `O=c1nc(-c2cccc(-c3ccccn3)n2)sc2ccccc12` [Example 199, 2-[6-(2,2′-Bipyridyl)]-4H-1,3-benzothiazine-4-one], for which the melting point was 222.1 to 223.9 °C.

`Cc1ccnc(-c2cc(C)cc(-c3nc(=O)c4ccccc4s3)n2)c1` [Example 200, 2-[6-(4,4′-Dimethyl-2,2′-bipyridyl)]-4H-1,3-benzothiazine-4-one] had a melting point of 234.9 to 235.2 °C.

`O=C(NCCO)c1cccc(-c2nc(=O)c3ccccc3s2)n1` [Example 201, N-(2-Hydroxyethyl)-6-(4-oxo-4H-1,3-benzothiazin-2-yl)-2-pyridinecarboxamide] showed a melting point of 213.8 to 215.2 °C.

Turning to `CC(C)(C)OC(=O)NCc1cccc(-c2nc(=O)c3ccccc3s2)n1` [Example 202, tert-Butyl [6-(4-Oxo-4H-1,3-benzothiazin-2-yl)-2-pyridyl]methylcarbamate], the melting point fell in the range of 160 to 162.1 °C.

In the case of `CC(=O)NCc1cccc(-c2nc(=O)c3ccccc3s2)n1` [Example 204, N-[[6-(4-Oxo-4H-1,3-benzothiazin-2-yl)-2-pyridyl]methyl]ace tamide], the melting point lay within 199.2 to 200.4 °C.

In the case of `CCC(=O)NCc1cccc(-c2nc(=O)c3ccccc3s2)n1` [Example 205, N-[[6-(4-Oxo-4H-1,3-benzothiazin-2-yl)-2-pyridyl]methyl]propanamide], the melting point was in the range of 199 to 199.8 °C.

On to `CC(C)C(=O)NCc1cccc(-c2nc(=O)c3ccccc3s2)n1` [Example 206, 2-Methyl-N-[[6-(4-oxo-4H-1,3-benzothiazin-2-yl)-2-pyridyl]methyl]propanamide], for which the melting point lay in the range of 188.6 to 189.2 °C.

Compound `O=C(NCc1cccc(-c2nc(=O)c3ccccc3s2)n1)c1ccccc1` [Example 207, N-[[6-(4-Oxo-4H-1,3-benzothiazin-2-yl)-2-pyridyl]methyl]benzamide] came in with a melting point of 213.9 to 214.7 °C.

Compound `O=C(NCc1cccc(-c2nc(=O)c3ccccc3s2)n1)c1cccs1` [Example 208, N-[[6-(4-Oxo-4H-1,3-benzothiazin-2-yl)-2-pyridyl]methyl]-2-thiophenecarboxamide] displayed a melting point of 208.5 to 209 °C.

`O=C(NCc1cccc(-c2nc(=O)c3ccccc3s2)n1)C(F)(F)F` [Example 209, 2,2,2-Trifluoro-N-[[6-(4-oxo-4H-1,3-benzothiazin-2-yl)-2-pyridyl]methyl]acetamide] yielded a melting point of 226.4 to 227.4 °C.

Regarding `CSCCC(=O)NCc1cccc(-c2nc(=O)c3ccccc3s2)n1` [Example 210, 3-(Methylthio)-N-[[6-(4-oxo-4H-1,3-benzothiazin-2-yl)-2-pyridyl]methyl]propanamide], the melting point was 191.6 to 192.8 °C.

Compound `CS(=O)(=O)NCc1cccc(-c2nc(=O)c3ccccc3s2)n1` [Example 211, N-[[6-(4-Oxo-4H-1,3-benzothiazin-2-yl)-2-pyridyl]methyl]methanesulfonamide] came in with a melting point of 188.1 to 189.5 °C.

`CCS(=O)(=O)NCc1cccc(-c2nc(=O)c3ccccc3s2)n1` [Example 212, N-[[6-(4-Oxo-4H-1,3-benzothiazin-2-yl)-2-pyridyl]methyl]ethanesulfonamide] came in with a melting point of 170 to 171 °C.

In turn, `O=c1nc(-c2cccc(CNS(=O)(=O)c3ccccc3)n2)sc2ccccc12` [Example 213, N-[[6-(4-Oxo-4H-1,3-benzothiazin-2-yl)-2-pyridyl]methyl]benzenesulfonamide] displayed a melting point of 206.7 to 207.5 °C.

Regarding `CN(C)C(=O)NCc1cccc(-c2nc(=O)c3ccccc3s2)n1` [Example 216, N,N-Dimethyl-N′-[[6-(4-oxo-4H-1,3-benzothiazin-2-yl)-2-pyridyl]methyl]urea], the melting point was in the range of 175.2 to 176.3 °C.

Consider `CC(C)(C)OC(=O)NCCc1cccc(-c2nc(=O)c3ccccc3s2)n1` [Example 217, tert-Butyl 2-[6-(4-oxo-4H-1,3-benzothiazin-2-yl)-2-pyridyl]ethylcarbamate], for which the melting point is 170.2 to 170.8 °C.

For `CC(C)(C)OC(=O)NCCc1ccnc(-c2nc(=O)c3ccccc3s2)c1` [Example 218, tert-Butyl 2-[2-(4-oxo-4H-1,3-benzothiazin-2-yl)-4-pyridyl]ethylcarbamate], the melting point was 159.8 to 161 °C.

Take `CC(C)(C)OC(=O)NCCc1ccnc(-c2nc(=O)c3ccc(Cl)cc3s2)c1` [Example 219, tert-Butyl 2-[2-(7-chloro-4-oxo-4H-1,3-benzothiazin-2-yl)-4-pyridyl]ethylcarbamate]: the melting point is 168.2 to 169.2 °C.

Regarding `O=C(NCCc1cccc(-c2nc(=O)c3ccccc3s2)n1)c1ccccc1` [Example 224, N-[2-[6-(4-Oxo-4H-1,3-benzothiazin-2-yl)-2-pyridyl]ethyl]benzamide], the melting point lay within 201.7 to 202.6 °C.

In turn, `O=C(NCCc1ccnc(-c2nc(=O)c3ccccc3s2)c1)c1ccccc1` [Example 225, N-[2-[2-(4-Oxo-4H-1,3-benzothiazin-2-yl)-4-pyridyl]ethyl]benzamide] returned a melting point of 216.8 to 219.3 °C.

In the case of `CC(=O)NCCc1cccc(-c2nc(=O)c3ccccc3s2)n1` [Example 226, N-[2-[6-(4-Oxo-4H-1,3-benzothiazin-2-yl)-2-pyrizyl]ethyl]acetamide], the melting point lay within 206.7 to 207.9 °C.

In the case of `O=C(NCCc1cccc(-c2nc(=O)c3ccccc3s2)n1)Nc1ccccc1` [Example 227, N-[2-[6-(4-Oxo-4H-1,3-benzothiazin-2-yl)-2-pyridyl]ethyl]-N′-phenylurea], the melting point fell in the range of 234.8 to 236.4 °C.

Turning to `CCNC(=O)NCCc1cccc(-c2nc(=O)c3ccccc3s2)n1` [Example 228, N-Ethyl-N′-[2-[6-(4-oxo-4H-1,3-benzothiazin-2-yl)-2-pyridyl]ethyl]urea], the melting point fell in the range of 240.3 to 242.4 °C.

Compound `CN(C)C(=O)NCCc1cccc(-c2nc(=O)c3ccccc3s2)n1` [Example 229, N,N-Dimethyl-N′-[2-[6-(4-oxo-4H-1,3-benzothiazin-2-yl)-2-pyridyl]ethyl]urea] returned a melting point of 190.2 to 191 °C.
